Results: US20030134859A1 (SANKYO COMPANY, LIMITED, priority 2000, published 2003)
Structures can show the parent of a compound that is named as a salt.

Test system: leptin production
Experiment: Enhancing activity for leptin production in adipocytes (ELISA)
Assay type: cell-based, rat
Details: leptin concentration as % of control group; for activity at 1 µM / activity at 0.1 µM / activity at 0.001 µM / activity at 0.01 µM: Rattus norvegicus, Adipocyte, 24 h, read-out: Facilitating activity to produce leptin; for Facilitating activity to produce leptin: 24 hr; for activity at 0.001 µM: 1 nm
How it was run: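 Leptin release, quantified by rat leptin ELISA, expressed as percent of 0.1% DMSO control after 24 h at 37 °C. Cells were floating adipocytes isolated by collagenase digestion of epididymal fat from male 6-week Wistar Imamichi rats; compound tested at 1 nM–1 µM final.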

Nc1ccc(-c2ccc(NC(=O)c3cc([N+](=O)[O-])ccc3Cl)cc2)cc1 [Example 88, N-[4-(4-Aminophenyl)phenyl]-(2-chloro-5-nitrophenyl)carboxamide mono-hydrochloride]
activity at 1 µM (1 μM): 115%
activity at 0.1 µM (100 nm): 119%

O=C(Nc1ccc(Cl)nn1)c1cc([N+](=O)[O-])ccc1Cl [Example 89]
Facilitating activity to produce leptin (100 nm): 123.2%

Cc1c(C)c2c(c(C)c1O)C(=O)CC(C)(COc1ccc(NC(=O)c3cc([N+](=O)[O-])ccc3Cl)cc1)O2 (stereo not shown) [Example 92, N-[4-(6-Hydroxy-2,5,7,8-tetramethyl-4-oxochroman-2-ylmethoxy)phenyl]-(2-chloro-5-nitrophenyl)carboxamide]
activity at 0.1 µM (100 nm): 116%

CS(=O)(=O)Nc1ccc(-c2ccc(NC(=O)c3cc([N+](=O)[O-])ccc3Cl)cc2)cc1 [Example 93, N-[4-[4-(Methanesulfonylamino)phenyl]phenyl]-(2-chloro-5-nitrophenyl)carboxamide]
activity at 1 µM (1 μM): 114%

Cc1ccc(S(=O)(=O)Nc2ccc(-c3ccc(NC(=O)c4cc([N+](=O)[O-])ccc4Cl)cc3)cc2)cc1 [Example 94, N-[4-[4-(4-Toluenesulfonylamino)phenyl]phenyl]-(2-chloro-5-nitrophenyl)carboxamide]
activity at 1 µM (1 μM): 116%
activity at 0.1 µM (100 nm): 110%

Cc1nnc(NS(=O)(=O)c2ccc(NC(=O)c3cc([N+](=O)[O-])ccc3Cl)cc2)s1 [Example 101, N-[4-[(5-Methyl-[1,3,4]thiadiazol-2-yl)aminosulfonyl]phenyl]-(2-chloro-5-nitrophenyl)carboxamide]
activity at 1 µM (1 μM): 117%

CC(=O)Nc1ccc(-c2ccc(NC(=O)c3cc([N+](=O)[O-])ccc3Cl)cc2)cc1 [Example 118, N-[4-(4-Acetylaminophenyl)phenyl]-(2-chloro-5-nitrophenyl)carboxamide]
activity at 1 µM (1 μM): 134%
activity at 0.001 µM: 114%
activity at 0.01 µM (10 nm): 115%
activity at 0.1 µM (100 nm): 127%

O=C(Nc1ccc(-c2ccc(NC(=O)c3cc([N+](=O)[O-])ccc3Cl)cc2)cc1)c1ccccc1 [Example 120, N-[4-(4-Benzoylaminophenyl)phenyl]-(2-chloro-5-nitrophenyl)carboxamide]
activity at 1 µM (1 μM): 121%
activity at 0.001 µM: 108%
activity at 0.01 µM (10 nm): 110%
activity at 0.1 µM (100 nm): 119%

Cc1ccc(C(=O)Nc2ccc(NC(=O)c3cc([N+](=O)[O-])ccc3Cl)cc2)cc1 [Example 121, N-[4-(4-Methylbenzoyl)aminophenyl]-(2-chloro-5-nitrophenyl)carboxamide]
activity at 0.1 µM (100 nm): 114%

O=C(Nc1ccc(-c2ccc(NC(=O)c3cc([N+](=O)[O-])ccc3Cl)cc2)cc1)c1cccnc1 [Example 124, N-[4-[4-(Pyridin-3-ylcarbonylamino)phenyl]phenyl]-(2-chloro-5-nitrophenyl)carboxamide]
activity at 1 µM (1 μM): 124%
activity at 0.001 µM: 113%
activity at 0.01 µM (10 nm): 113%
activity at 0.1 µM (100 nm): 146%

O=C(Nc1ccc(-c2ccc(NC(=O)c3cc([N+](=O)[O-])ccc3Cl)cc2)cc1)c1ccncc1 [Example 126, N-[4-[4-(Pyridin-4-ylcarbonylamino)phenyl]phenyl]-(2-chloro-5-nitrophenyl)carboxamide]
activity at 1 µM (1 μM): 142%
activity at 0.01 µM (10 nm): 109%
activity at 0.1 µM (100 nm): 121%

O=C(Nc1ccc(NS(=O)(=O)c2ccccc2)cc1)c1cc([N+](=O)[O-])ccc1Cl [Example 127, N-(4-Benzenesulfonylaminophenyl)-(2-chloro-5-nitrophenyl)carboxamide]
activity at 1 µM (1 μM): 115%

CCS(=O)(=O)Nc1ccc(-c2ccc(NC(=O)c3cc([N+](=O)[O-])ccc3Cl)cc2)cc1 [Example 130, N-[4-(4-Ethanesulfonylaminophenyl)phenyl]-(2-chloro-5-nitrophenyl)carboxamide]
activity at 1 µM (1 μM): 116%
activity at 0.1 µM (100 nm): 123%

O=C(Nc1cnccn1)c1cc([N+](=O)[O-])ccc1Cl [Example 140, N-(Pyrazin-2-yl)-(2-chloro-5-nitrophenyl)carboxamide]
activity at 0.1 µM (100 nm): 114%

Cl.O=C(Nc1ccncc1)c1cc([N+](=O)[O-])ccc1Cl [Example 146, N-(Pyridin-4-yl)-(2-chloro-5-nitrophenyl)carboxamide Hydrochloride]
activity at 1 µM (1 μM): 126%
activity at 0.01 µM (10 nm): 112%
activity at 0.1 µM (100 nm): 138%

Cc1ccc(C(=O)Nc2nc3ccc(NC(=O)c4cc([N+](=O)[O-])ccc4Cl)cc3s2)cc1 [Example 149, N-[2-(4-Methylbenzoylamino)benzothiazol-6-yl]-(2-chloro-5-nitrophenyl)carboxamide]
activity at 1 µM (1 μM): 117%
activity at 0.1 µM (100 nm): 111%

O=C(Nc1ccc(S(=O)(=O)N2CCCCC2)cc1)c1cc([N+](=O)[O-])ccc1Cl [Example 151, N-[4-(Piperidyisulfonyl)phenyl]-(2-chloro-5-nitrophenyl)carboxamide]
activity at 1 µM (1 μM): 113%
activity at 0.1 µM (100 nm): 113%

O=C(Nc1ccc(S(=O)(=O)N2CCOCC2)cc1)c1cc([N+](=O)[O-])ccc1Cl [Example 153, N-[4-(Morpholin-4-ylsulfonyl)phenyl]-(2-chloro-5-nitrophenyl)carboxamide]
activity at 1 µM (1 μM): 113%

CC(=O)c1ccc(NC(=O)c2cc([N+](=O)[O-])ccc2Cl)cc1 [Example 155, N-(4-Acetylphenyl)-(2-chloro-5-nitrophenyl)carboxamide]
activity at 1 µM (1 μM): 114%
activity at 0.1 µM (100 nm): 130%

CC(=O)c1cccc(NC(=O)c2cc([N+](=O)[O-])ccc2Cl)c1 [Example 156, N-(3-Acetylphenyl)-(2-chloro-5-nitrophenyl)carboxamide]
activity at 1 µM (1 μM): 112%
activity at 0.1 µM (100 nm): 118%

CC(C)(C)c1cc(NS(=O)(=O)c2cccc(NC(=O)c3cc([N+](=O)[O-])ccc3Cl)c2)cc(C(C)(C)C)c1O [Example 161, N-[3-[(3,5-di-tert-Butyl-4-hydroxyphenyl)aminosulfonyl]phenyl]-(2-chloro-5-nitrophenyl)carboxamide]
activity at 1 µM (1 μM): 131%

O=C(Nc1ccc(-n2ccnc2)cc1)c1cc([N+](=O)[O-])ccc1Cl [Example 174, N-[4-(Imidazol-1-yl)phenyl]-(2-chloro-5-nitrophenyl)carboxamide]
activity at 0.001 µM: 118%
activity at 0.01 µM (10 nm): 123%
activity at 0.1 µM (100 nm): 127%

O=C(Nc1ccc(-c2ccc(N3CCCCC3)cc2)cc1)c1cc([N+](=O)[O-])ccc1Cl [Example 177, N-[4-[4-(Piperidin-1-yl)phenyl]phenyl]-(2-chloro-5-nitrophenyl)carboxamide]
activity at 1 µM (1 μM): 145%
activity at 0.01 µM (10 nm): 121%
activity at 0.1 µM (100 nm): 134%

CCCN(CCC)c1ccc(NC(=O)c2cc([N+](=O)[O-])ccc2Cl)cc1 [Example 182, N-[4-(N,N-Dipropylamino)phenyl]-(2-chloro-5-nitrophenyl)carboxamide]
activity at 0.01 µM (10 nm): 110%
activity at 0.1 µM (100 nm): 112%

O=C(Nc1ccc(N2CCN(C(=O)c3ccccc3)CC2)cc1)c1cc([N+](=O)[O-])ccc1Cl [Example 184, N-[4-(4-Benzoylpiperazin-1-yl)phenyl]-(2-chloro-5-nitrophenyl)carboxamide]
activity at 0.01 µM (10 nm): 122%
activity at 0.1 µM (100 nm): 123%

CCCCCCN(CC)c1ccc(NC(=O)c2cc([N+](=O)[O-])ccc2Cl)cc1 [Example 188, N-[4-(N-Ethyl-N-hexylamino)phenyl]-(2-chloro-55 nitrophenyl)carboxamide]
activity at 0.001 µM: 110%

Nc1ccc(-c2ccc(NC(=O)c3cc([N+](=O)[O-])ccc3Cl)cc2)cc1 [Example 192, N-[4-(4-Aminophenyl)phenyl]-(2-chloro-5-nitrophenyl)carboxamide]
Facilitating activity to produce leptin (1 μM): 112.1%
Facilitating activity to produce leptin (100 nm): 121.7%
activity at 0.01 µM (10 nm): 122%

CCCCNc1ccc(-c2ccc(NC(=O)c3cc([N+](=O)[O-])ccc3Cl)cc2)cc1 [Example 203, N-[4-[4-(N-Butylamiino)phenyl]phenyl]-(2-chloro-5-nitrophenyl)carboxamide]
Facilitating activity to produce leptin (1 μM): 133.9%
Facilitating activity to produce leptin (10 nm): 134.6%
Facilitating activity to produce leptin (100 nm): 124.8%

CCCNc1ccc(-c2ccc(NC(=O)c3cc([N+](=O)[O-])ccc3Cl)cc2)cc1 [Example 204, N-[4-[4-(N-Propylamino)phenyl]phenyl]-(2-chloro-5-nitrophenyl)carboxamide]
activity at 1 µM (1 μM): 133%
activity at 0.01 µM (10 nm): 129%
activity at 0.1 µM (100 nm): 143%

CCNc1ccc(-c2ccc(NC(=O)c3cc([N+](=O)[O-])ccc3Cl)cc2)cc1 [Example 205, N-[4-[4-(N-Ethylamino)phenyl]phenyl]-(2-chloro-5-nitrophenyl)carboxamide]
activity at 1 µM (1 μM): 120%
activity at 0.01 µM (10 nm): 123%
activity at 0.1 µM (100 nm): 123%

CCCCCN(CCCC)c1ccc(-c2ccc(NC(=O)c3cc([N+](=O)[O-])ccc3Cl)cc2)cc1 [Example 206, N-[4-[4-(N-Butyl-N-pentylamino)phenyl]phenyl]-(2-chloro-5-nitrophenyl)carboxamide]
activity at 1 µM (1 μM): 119%
activity at 0.1 µM (100 nm): 112%

CCCCN(CCCC)c1ccc(-c2ccc(NC(=O)c3cc([N+](=O)[O-])ccc3Cl)cc2)cc1 [Example 207, N-[4-[4-(N,N-Dibutylamino)phenyl]phenyl]-(2-chloro-5-nitrophenyl)carboxamide]
activity at 1 µM (1 μM): 116%
activity at 0.01 µM (10 nm): 107%
activity at 0.1 µM (100 nm): 110%

CCCCN(CCC)c1ccc(-c2ccc(NC(=O)c3cc([N+](=O)[O-])ccc3Cl)cc2)cc1 [Example 208, N-[4-[4-(N-Butyl-N-propylamino)phenyl]phenyl]-(2-chloro-5-nitrophenyl)carboxamide]
activity at 0.1 µM (100 nm): 111%
